# According to US11426397B2, “Piperidinyl- and piperazinyl-substituted heteroaromatic carboxamides as modulators of GPR6” (TAKEDA PHARMACEUTICAL COMPANY LIMITED, priority 2017, dated 2022):
# Target: T1, GPR6 receptor expressed in CHO-K1 cells (Homo sapiens, UniProt P46095)
# T1 construct: expressed in transfected cells
# Assay: In vitro inhibition of cAMP (EC50), cell-based HTRF cAMP assay
# Settings: inhibition of constitutive cAMP activity of GPR6 in CHO-K1 cells
# Method: I. In Vitro Inhibition of cAMP (EC50)
# This cell based assay measures the ability of test compounds to inhibit the constitutive cAMP activity of GPR6 receptor expressed in CHO-K1 cells. CHO cells are stably expressed with GPR6 receptor, whose expression is controlled by a tetracycline inducible element. The cells were cultured in medium containing F12K, 10% FBS, 1% Penn/Strep, 200 μg/mL Hygromycin. GPR6 receptor expression is induced for 20 hours with 2 μg/mL doxycycline (Sigma D9891) in growth media. After addition of doxycycline, the cells are plated at a density of 450-750 cells per well in 96-well half-volume black tissue culture plates (Costar) and placed in an incubator (37° C., 5% CO2) for 20 hours prior to cAMP assays.
# Culture media is removed from the cells and they are washed with 50 μL/well of Ringer's Buffer (MgCl2 0.047 mg/mL, NaH2PO4 0.18 mg/mL, Na2HPO4 0.1 mg/mL, KCl 0.34 mg/mL, NaHCO3 1.26 mg/mL, D-glucose 1.8 mg/mL, NaCl 7 mg/mL; pH=7.4). The test compounds are suspended in DMSO, diluted in Ringer's Buffer containing 0.5% fatty acid free BSA plus 300 μM IBMX, and incubated on the cells for 45 minutes at 37° C. and 5% CO2. After incubation, the cells are conditioned for 10 minutes at room temp with Eu-cAMP tracer solution from a Perkin Elmer Lance HTRF Ultra cAMP assay kit (TRF0263). Then ULight™-anti-cAMP solution from the Lance HTRF kit is added and incubated on a shaker at room temp for 1 hour prior to HTRF detection in a Perkin Elmer Envision plate reader. EC50 curves are generated with a four-parameter logistic equation using GraphPad Prism 5.03.
# Table 1 lists biological assay data (in vitro inhibition of cAMP) for some of the compounds shown in the examples, where larger pEC50 values represent higher activity or potency. All of the compounds shown in Table 1 were tested in accordance with a cell-based assay which measures the ability of test compounds to inhibit the constitutive cAMP activity of GPR6 receptor expressed in CHO-K1 cells (reported as pEC50). The assay is described in the specification under the heading “In vitro inhibition of cAMP (EC50).”
# T1 sequence (P46095 whole entry): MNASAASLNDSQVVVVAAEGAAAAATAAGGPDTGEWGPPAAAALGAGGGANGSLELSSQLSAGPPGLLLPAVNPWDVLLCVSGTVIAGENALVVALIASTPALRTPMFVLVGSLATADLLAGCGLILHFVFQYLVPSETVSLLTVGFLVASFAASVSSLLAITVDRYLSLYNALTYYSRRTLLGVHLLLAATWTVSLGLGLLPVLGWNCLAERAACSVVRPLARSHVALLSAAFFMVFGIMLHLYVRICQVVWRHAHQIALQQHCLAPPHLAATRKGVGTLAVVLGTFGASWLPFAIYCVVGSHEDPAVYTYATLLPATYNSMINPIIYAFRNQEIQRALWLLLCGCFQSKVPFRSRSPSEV
row,SMILES,"pEC50, in vitro inhibition of cAMP"
1,"Cn1ccnc1C(=O)Nc1cc(C#N)ccc1N1CCC(Oc2ccc(F)cc2F)CC1 [Example 50, N-(5-cyano-2-(4-(2,4-difluorophenoxy)piperidin-1-yl)phenyl)-1-methyl-1H-imidazole-2-carboxamide]",6.2
2,"Cc1csc(C(=O)Nc2cc(C#N)ccc2N2CCC(Oc3ccc(F)cc3F)CC2)n1 [Example 51, N-(5-cyano-2-(4-(2,4-difluorophenoxy)piperidin-1-yl)phenyl)-4-methylthiazole-2-carboxamide]",6.8
3,"N#Cc1ccc(N2CCC(Oc3ccc(F)cc3F)CC2)c(NC(=O)c2ccc(O)nn2)c1 [Example 52, N-(5-cyano-2-(4-(2,4-difluorophenoxy)piperidin-1-yl)phenyl)-6-hydroxypyridazine-3-carboxamide]",6.2
4,"N#Cc1ccc(N2CCC(Oc3ccc(F)cc3F)CC2)c(NC(=O)c2cnn3c2OCCC3)c1 [Example 53, N-(5-cyano-2-(4-(2,4-difluorophenoxy)piperidin-1-yl)phenyl)-6,7-dihydro-5H-pyrazolo[5,1-b][1,3]oxazine-3-carboxamide]",6.3
5,"Cc1cccc(C(=O)Nc2cc(C#N)cnc2N2CCC(Oc3ccc(F)cc3F)CC2)n1 [Example 54, N-(5-cyano-2-(4-(2,4-difluorophenoxy)piperidin-1-yl)pyridin-3-yl)-6-methylpicolinamide]",7.4
6,"N#Cc1cnc(N2CCC(Oc3ccc(F)cc3F)CC2)c(NC(=O)c2cc(Cl)ccn2)c1 [Example 55, 4-chloro-V-(5-cyano-2-(4-(2,4-difluorophenoxy)piperidin-1-yl)pyridin-3-yl)picolinamide]",7.3
7,"COc1cc(F)ccc1C(=O)Nc1cc(C#N)cnc1N1CCC(Oc2ccc(F)cc2F)CC1 [Example 56, N-(5-cyano-2-(4-(2,4-difluorobenoxy)piperidin-1-yl)pyridin-3-yl)-4-fluoro-2-methoxybenzamide]",7.2
8,"Cc1ccc(F)c(C(=O)Nc2cc(C#N)cnc2N2CCC(Oc3ccc(F)cc3F)CC2)n1 [Example 57, N-(5-cyano-2-(4-(2,4-difluorophenoxy)piperidin-1-yl)pyridin-3-yl)-3-fluoro-6-methylpicolinamide]",7.3
9,"Cn1cccc(C(=O)Nc2cc(C#N)cnc2N2CCC(Oc3ccc(F)cc3F)CC2)c1=O [Example 58, N-(5-cyano-2-(4-(2,4-difluorophenoxy)piperidin-1-yl)pyridin-3-yl)-1-methyl-2-oxo-1,2-dihydropyridine-3-carboxamide]",7.4
10,"Cc1cccnc1C(=O)Nc1cc(C#N)cnc1N1CCC(Oc2ccc(F)cc2F)CC1 [Example 59, N-(5-cyano-2-(4-(2,4-difluorophenoxy)piperidin-1-yl)pyridin-3-yl)-3-methylpicolinamide]",7.3
11,"COc1nn(C)cc1C(=O)Nc1cc(C#N)cnc1N1CCC(Oc2ccc(F)cc2F)CC1 [Example 60, N-(5-cyano-2-(4-(2,4-difluorophenoxy)piperidin-1-yl)pyridin-3-yl)-3-methoxy-1-methyl-1H-pyrazole-4-carboxamide]",7.3
12,N#Cc1cnc(N2CCC(Oc3ccc(F)cc3F)CC2)c(NC(=O)c2cnccc2O)c1 [Example 61],6.4
13,"COc1ccncc1C(=O)Nc1ccc(C)nc1N1CCC(Oc2ccc(F)cc2F)CC1 [Example 62, N-(2-(4-(2,4-difluorophenoxy)piperidin-1-yl)-6-methylpyridin-3-yl)-4-methoxynicotinamide]",7.3
14,"COc1ncccc1C(=O)Nc1cc(C#N)cnc1N1CCC(Oc2ccc(F)cc2F)CC1 [Example 63, N-(5-cyano-2-(4-(2,4-difluorophenoxy)piperidin-1-yl)pyridin-3-yl)-2-methoxynicotinamide]",7.1
15,"COc1ncccc1C(=O)Nc1cc(CNC(C)=O)cnc1N1CCC(Oc2ccc(F)cc2F)CC1 [Example 64, N-(5-(acetamidomethyl)-2-(4-(2,4-difluorophenoxy)piperidin-1-yl)pyridin-3-yl)-2-methoxynicotinamide]",7.0
16,"COCc1cnc(N2CCC(Oc3ccc(F)cc3F)CC2)c(NC(=O)c2cccnc2OC)c1 [Example 65, N-(2-(4-(2,4-difluorophenoxy)piperidin-1-yl)-5-(methoxymethyl)pyridin-3-yl)-2-methoxynicotinamide]",7.3
17,"N#Cc1cnc(N2CCC(Oc3ccc(F)cc3F)CC2)c(NC(=O)c2ccccn2)c1 [Example 66, N-(5-cyano-2-(4-(2,4-difluorophenoxy)piperidin-1-yl)pyridin-3-yl)picolinamide]",7.3
18,"Cc1ccc(Cl)c(OC2CCN(c3ncc(C#N)cc3NC(=O)c3ccccn3)CC2)c1 [Example 68, N-(2-(4-(2-chloro-5-methylphenoxy)piperidin-1-yl)-5-cyanopyridin-3-yl)picolinamide]",6.6
19,"Cc1ccc(SC2CCN(c3ncc(C#N)cc3NC(=O)c3ccccn3)CC2)cc1 [Example 69, N-(5-cyano-2-(4-(p-tolylthio)piperidin-1-yl)pyridin-3-yl)picolinamide]",6.7
20,"COc1ncccc1C(=O)Nc1cc(C#N)ccc1N1CCC(C(=O)c2ccccc2)CC1 [Example 70, N-(2-(4-benzoylpiperidin-1-yl)-5-cyanophenyl)-2-methoxynicotinamide]",6.4
21,COc1ncccc1C(=O)Nc1cc(C#N)ccc1N1CCN(Cc2c(F)cccc2Cl)CC1 [Example 71],6.5
22,"COc1ncccc1C(=O)Nc1cc(C#N)ccc1N1CCN(Cc2cccs2)CC1 [Example 72, N-(5-cyano-2-(4-(thiophen-2-ylmethyl)piperazin-1-yl)phenyl)-2-methoxynicotinamide]",6.6
23,"COc1ncccc1C(=O)Nc1cc(C#N)ccc1N1CCN(Cc2ccsc2)CC1 [Example 73, N-(5-cyano-2-(4-(thiophen-3-ylmethyl)piperazin-1-yl)phenyl)-2-methoxynicotinamide]",6.5
24,"COc1nc(C)ccc1C(=O)Nc1cnc(C)nc1N1CCC(Oc2ccc(F)cc2F)CC1 [Example 74, N-(4-(4-(2,4-difluorophenoxy)piperidin-1-yl)-2-methylpyrimidin-5-yl)-2-methoxy-6-methylnicotinamide]",7.1
25,"COc1ncccc1C(=O)Nc1cc(C#N)cnc1N1CCN(Cc2ccc(F)cc2)CC1 [Example 75, N-(5-cyano-2-(4-(4-fluorobenzyl)piperazin-1-yl)pyridin-3-yl)-2-methoxynicotinamide]",7.3
26,"CC(=O)n1ncc2ccc(NC(=O)c3ccccn3)c(N3CCC(Oc4ccc(F)cc4F)CC3)c21 [Example 76, N-(1-acetyl-7-(4-(2,4-difluorophenoxy)piperidin-1-yl)-1H-indazol-6-yl)picolinamide]",<5.7
27,"Cn1ncc2ccc(NC(=O)c3ccccn3)c(N3CCC(Oc4ccc(F)cc4F)CC3)c21 [Example 77, N-(7-(4-(2,4-difluorophenoxy)piperidin-1-yl)-1-methyl-1H-indazol-6-yl)picolinamide]",<5.7
28,"COc1ccc(C(=O)Nc2cc(C#N)ccc2N2CCC(Oc3ccc(F)cc3F)CC2)c(OC)n1 [Example 78, N-(5-cyano-2-(4-(2,4-difluorophenoxy)piperidin-1-yl)phenyl)-2,6-dimethoxynicotinamide]",6.9
29,"Cc1ccc(C(=O)Nc2cc(C#N)ccc2N2CCC(Oc3ccc(F)cc3F)CC2)c(=O)n1C [Example 79, N-(5-cyano-2-(4-(2,4-difluorophenoxy)piperidin-1-yl)phenyl)-1,6-dimethyl-2-oxo-1,2-dihydropyridine-3-carboxamide]",6.8

# Same assay, conditions: inhibition of constitutive cAMP activity of GPR6 in CHO-K1 cells; read-out: pEC50, in vitro inhibition of cAMP (converted)
row,SMILES,EC50 [nM]
1,"N#Cc1cnc(N2CCC(Cc3ccccc3)CC2)c(NC(=O)c2ccccn2)c1 [Example 67, N-(2-(4-benzylpiperidin-1-yl)-5-cyanopyridin-3-yl)picolinamide]",100
